Experimental data: patent US8722849B2, “Polypeptides” (Novo Nordisk A/S, priority 2011, dated 2014)
Values after ≈ are worked out from the molar mass of the structure shown. Where two headings read alike, the source gives them in different places. Starred links: 1 amine or outer side, 2 acyl side, 3 side chain; linkers in the order of their positions; H or OH if unused. Positions of bridges follow the written chain, without caps; N, C: chain ends. Residues, ends and D or L forms follow the SMILES beside them. *: point of attachment. C20 diacid = O=C(O)CCCCCCCCCCCCCCCCCCC(=O)*; γGlu = O=C(O)[C@H](CCC(=O)[*:2])N[*:1]

How the values were obtained:
[1] = Assay (IV) determination of solubility; assay type: physicochemical
Method in brief: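 Polypeptide in water (~500 nmol/ml stock) was mixed 1:1 with 100 mM buffers from pH 3.0 to 8.0 (glycylglycine pH 3.0–5.0; bistrispropane pH 6.0–8.0). After 18 hours at room temperature, samples were centrifuged and the polypeptide remaining in solution was quantified by HPLC.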

[2] = biological target: T1, human calcitonin receptor (Homo sapiens, UniProt P30988); experiment: Assay (II)a functional CRE-luciferase assay, human calcitonin receptor; assay type: cell-based; conditions: Table 7; human calcitonin (CTa) receptor
T1 construct: expressed in transfected cells; host or cells: BHK570
T1 sequence (P30988 25-474): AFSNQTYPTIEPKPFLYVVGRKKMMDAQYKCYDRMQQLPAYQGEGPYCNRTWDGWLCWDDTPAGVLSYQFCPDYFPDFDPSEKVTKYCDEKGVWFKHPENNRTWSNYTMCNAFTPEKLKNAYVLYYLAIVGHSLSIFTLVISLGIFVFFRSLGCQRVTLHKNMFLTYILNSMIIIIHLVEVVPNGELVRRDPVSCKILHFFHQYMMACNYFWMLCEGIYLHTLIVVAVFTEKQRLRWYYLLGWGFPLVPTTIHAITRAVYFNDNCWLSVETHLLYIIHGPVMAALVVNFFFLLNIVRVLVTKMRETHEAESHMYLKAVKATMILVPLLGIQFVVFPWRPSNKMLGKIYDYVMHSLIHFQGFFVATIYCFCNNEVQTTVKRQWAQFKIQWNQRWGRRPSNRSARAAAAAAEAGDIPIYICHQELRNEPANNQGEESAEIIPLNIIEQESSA

[3] = biological target: T2, rat amylin 3(a) receptor (rat calcitonin(a) receptor + rat RAMP3) (Rattus norvegicus, UniProt P32214+Q9JJ73); experiment: Assay (II)b functional cAMP FlashPlate assay, rat amylin receptor; assay type: cell-based; conditions: Table 11
T2 construct: expressed in transfected cells; host or cells: BHK tk'ts 13
T2 sequence (P32214 25-479 isoform P32214-2 limits assumed): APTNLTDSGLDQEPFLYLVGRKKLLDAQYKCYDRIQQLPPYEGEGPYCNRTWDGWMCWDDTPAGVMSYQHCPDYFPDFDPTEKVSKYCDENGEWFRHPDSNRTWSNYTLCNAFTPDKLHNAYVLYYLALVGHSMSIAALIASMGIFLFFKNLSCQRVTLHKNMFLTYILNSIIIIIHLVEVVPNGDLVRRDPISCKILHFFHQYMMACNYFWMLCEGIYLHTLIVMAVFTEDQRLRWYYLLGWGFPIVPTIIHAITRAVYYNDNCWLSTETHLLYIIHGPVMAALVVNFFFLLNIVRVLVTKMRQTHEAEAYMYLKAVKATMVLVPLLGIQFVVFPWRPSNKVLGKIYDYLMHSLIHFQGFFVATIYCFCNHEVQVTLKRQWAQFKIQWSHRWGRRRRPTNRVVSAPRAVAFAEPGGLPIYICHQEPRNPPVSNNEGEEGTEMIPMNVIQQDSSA
T2 sequence (Q9JJ73 23-147 partner): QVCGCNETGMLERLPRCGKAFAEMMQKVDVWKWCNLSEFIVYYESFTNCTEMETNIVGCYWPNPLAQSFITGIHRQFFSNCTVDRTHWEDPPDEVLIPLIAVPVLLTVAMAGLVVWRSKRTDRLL
Method in brief: (§1)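 BHK tk'ts 13 cells transiently transfected with rat calcitonin(a) receptor, alone or with rat RAMP3 (amylin 3(a)), were stimulated 24 hours later with sample for 30 min in buffer containing IBMX. cAMP measured by competitive radioactive FlashPlate assay, scintillation read after 3 h detection incubation.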

[4] = Assay (IX) pK, determination of T½ in mini-pig; assay type: in vivo, Göttingen mini-pigs; conditions: male, Göttingen, iv, 2 nmol/kg; minipig; plasma terminal half-life
[5] = biological target: T3, human amylin receptor (amylin 3(a) receptor: human calcitonin receptor + RAMP-3) (Homo sapiens, UniProt O60896+P30988); experiment: Assay (II)a functional CRE-luciferase assay, human amylin receptor; assay type: cell-based; conditions: Table 2; BHK amylin 3(a)-receptor/CRE-luc cells
T3 construct: expressed in transfected cells; host or cells: BHK570
T3 sequence (P30988 25-474): T1 sequence (P30988 25-474)
T3 sequence (O60896 24-148 partner): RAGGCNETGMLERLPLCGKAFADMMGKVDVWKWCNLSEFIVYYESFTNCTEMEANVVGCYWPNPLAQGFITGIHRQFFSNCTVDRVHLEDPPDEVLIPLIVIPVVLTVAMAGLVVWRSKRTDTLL

[6] = biological target: T4, rat calcitonin (a) receptor (Rattus norvegicus, UniProt P32214); experiment: Assay (II)b functional cAMP FlashPlate assay, rat calcitonin receptor; assay type: cell-based; conditions: Table 11; read-out: CTa receptor rat EC50
T4 construct: expressed in transfected cells; host or cells: BHK tk'ts 13
T4 sequence (P32214 25-479 isoform P32214-2 limits assumed): T2 sequence (P32214 25-479 isoform P32214-2 limits assumed)
Method in brief: as §1

[7] = bistrispropane buffer, pH 6, pH 6.0, read-out: Solubility pH 6.0
[8] = bistrispropane buffer, pH 6.5, pH 6.5, read-out: Solubility pH 6.5
[9] = bistrispropane buffer, pH 7, pH 7.0, read-out: Solubility pH 7.0
[10] = bistrispropane buffer, pH 7.5, pH 7.5, read-out: Solubility pH 7.5
[11] = bistrispropane buffer, pH 8, pH 8.0, read-out: Solubility pH 8.0
[12] = glycylglycine buffer, pH 3, pH 3.0, read-out: Solubility pH 3.0
[13] = glycylglycine buffer, pH 4, pH 4.0, 18 hours at room temperature, Table 2, read-out: Solubility pH 4.0
[14] = glycylglycine buffer, pH 4, pH 4.0, read-out: Solubility pH 4.0
[15] = glycylglycine buffer, pH 5, pH 5.0, read-out: Solubility pH 5.0
[16] = bistrispropane buffer, pH 7, pH 7.0, 18 hours at room temperature, Table 3, read-out: Solubility pH 7.0

solubility at 18 h [1, 7] | solubility at 18 h [1, 8] | solubility at 18 h [1, 9] | solubility at 18 h [1, 10] | solubility at 18 h [1, 11] | solubility at 18 h [1, 12] | solubility at 18 h [1, 13] | solubility at 18 h [1, 14] | solubility at 18 h [1, 15] | EC50 [2] | EC50 [3] | half-life [4] | EC50 [5] | EC50 [6] | solubility at 18 h [1, 16] | solubility at 18 h ([1]; bistrispropane buffer, pH 7, pH 7.0, Table 8, read-out: Solubility pH 7.0) | solubility at 18 h ([1]; bistrispropane buffer, pH 7, pH 7.0, Table 9, read-out: Solubility pH 7.0) | solubility at 18 h ([1]; bistrispropane buffer, pH 7.5, pH 7.5, Table 9, read-out: Solubility pH 7.5) | solubility at 18 h ([1]; pH 8.0, read-out: Solubility pH 8.0) | Compound
> 200 µM | 44 µM (≈ 209 µg/mL) | 29 µM (≈ 137 µg/mL) | 157 µM (≈ 744 µg/mL) | > 200 µM | > 200 µM | > 200 µM | > 200 µM | > 200 µM | 0.208 nM | 0.0885 nM | 106 h | 0.0853 nM | 0.962 nM |  |  |  |  |  | CC[C@H](C)[C@H](NC(=O)[C@@H]1CCCN1C(=O)CNC(=O)[C@H](Cc1ccccc1)NC(=O)[C@H](CC(N)=O)NC(=O)[C@H](CC(N)=O)NC(=O)[C@H](CO)NC(=O)[C@H](CO)NC(=O)[C@H](Cc1cnc[nH]1)NC(=O)[C@H](Cc1cnc[nH]1)NC(=O)[C@H](CC(C)C)NC(=O)[C@H](Cc1ccccc1)NC(=O)[C@H](CCC(=O)O)NC(=O)[C@H](C)NC(=O)[C@H](CC(C)C)NC(=O)[C@H](CCCNC(=N)N)NC(=O)[C@H](CCC(N)=O)NC(=O)[C@@H](NC(=O)[C@H](C)NC(=O)[C@@H]1CSSC[C@H](NC(=O)[C@H](Cc2cnc[nH]2)NC(=O)[C@H](Cc2cnc[nH]2)NC(=O)[C@H](Cc2cnc[nH]2)NC(=O)CC[C@H](NC(=O)CCCCCCCCCCCCCCCCCCC(=O)O)C(=O)O)C(=O)N[C@@H](CC(N)=O)C(=O)N[C@@H]([C@@H](C)O)C(=O)N[C@@H](C)C(=O)N[C@@H]([C@@H](C)O)C(=O)N1)[C@@H](C)O)C(=O)N[C@@H](CC(C)C)C(=O)N1CCC[C@H]1C(=O)N1CCC[C@H]1C(=O)N[C@H](C(=O)N[C@@H](CC(N)=O)C(=O)N[C@H](C(=O)NCC(=O)N[C@@H](CO)C(=O)N[C@@H](CC(N)=O)C(=O)N[C@H](C(=O)N[C@@H](Cc1ccc(O)cc1)C(N)=O)[C@@H](C)O)C(C)C)[C@@H](C)O [Example 11, N-alpha-[(S)-4-Carboxy-4-(19-carboxynonadecanoylamino)butyryl]-His-His-[His1,Glu14,His17]-pramlintide] ({C20 diacid-γGlu}-HHHCNTATCATQRLAEFLHHSSNNFGPILPPTNVGSNTY-NH2; disulfide 4-9)
> 200 µM | 146 µM (≈ 654 µg/mL) | 102 µM (≈ 459 µg/mL) | 108 µM (≈ 486 µg/mL) | 146 µM (≈ 654 µg/mL) | > 200 µM | > 200 µM | > 200 µM | > 200 µM | 0.163 nM | 0.262 nM | 73 h | 0.152 nM | 0.673 nM | 102 µM (≈ 459 µg/mL) |  |  |  |  | CC[C@H](C)[C@H](NC(=O)[C@@H]1CCCN1C(=O)CNC(=O)[C@H](Cc1ccccc1)NC(=O)[C@H](CC(N)=O)NC(=O)[C@H](CC(N)=O)NC(=O)[C@H](CO)NC(=O)[C@H](CO)NC(=O)[C@H](Cc1c[nH]cn1)NC(=O)[C@H](Cc1cnc[nH]1)NC(=O)[C@H](CC(C)C)NC(=O)[C@H](Cc1ccccc1)NC(=O)[C@H](CCC(=O)O)NC(=O)[C@H](C)NC(=O)[C@H](CC(C)C)NC(=O)[C@H](CCCNC(=N)N)NC(=O)[C@H](CCC(N)=O)NC(=O)[C@@H](NC(=O)[C@H](C)NC(=O)[C@@H]1CSSC[C@H](NC(=O)[C@H](CCCCN)NC(=O)CC[C@H](NC(=O)CCCCCCCCCCCCCCCCCCC(=O)O)C(=O)O)C(=O)N[C@@H](CC(N)=O)C(=O)N[C@@H]([C@@H](C)O)C(=O)N[C@@H](C)C(=O)N[C@@H]([C@@H](C)O)C(=O)N1)[C@@H](C)O)C(=O)N[C@@H](CC(C)C)C(=O)N1CCC[C@H]1C(=O)N1CCC[C@H]1C(=O)N[C@H](C(=O)N[C@@H](CC(N)=O)C(=O)N[C@H](C(=O)NCC(=O)N[C@@H](CO)C(=O)N[C@@H](Cc1cnc[nH]1)C(=O)N[C@H](C(=O)N[C@@H](Cc1ccc(O)cc1)C(N)=O)[C@@H](C)O)C(C)C)[C@@H](C)O [Example 55, N-alpha-[(S)-4-Carboxy-4-(19-carboxynonadecanoylamino)butyryl]-[Glu14,His17,His35]-pramlintide] ({C20 diacid-γGlu}-KCNTATCATQRLAEFLHHSSNNFGPILPPTNVGSHTY-NH2; disulfide 2-7)
> 200 µM | > 200 µM | > 200 µM | 121 µM (≈ 544 µg/mL) |  | > 200 µM | > 200 µM | > 200 µM | > 200 µM | 0.387 nM | 0.511 nM | 68 h | 0.111 nM | 2.84 nM | > 200 µM | > 200 µM | > 200 µM | 121 µM (≈ 544 µg/mL) | 80 µM (≈ 360 µg/mL) | CC[C@H](C)[C@H](NC(=O)[C@@H]1CCCN1C(=O)CNC(=O)[C@H](Cc1ccccc1)NC(=O)[C@H](CC(N)=O)NC(=O)[C@H](CC(N)=O)NC(=O)[C@H](CO)NC(=O)[C@H](CO)NC(=O)[C@H](Cc1c[nH]cn1)NC(=O)[C@H](CCCNC(=N)N)NC(=O)[C@H](CC(C)C)NC(=O)[C@H](Cc1ccccc1)NC(=O)[C@H](CCC(=O)O)NC(=O)[C@H](C)NC(=O)[C@H](CC(C)C)NC(=O)[C@H](CCCNC(=N)N)NC(=O)[C@H](CCC(N)=O)NC(=O)[C@@H](NC(=O)[C@H](C)NC(=O)[C@@H]1CSSC[C@H](NC(=O)[C@H](CCCCN)NC(=O)CC[C@H](NC(=O)CCCCCCCCCCCCCCCCCCC(=O)O)C(=O)O)C(=O)N[C@@H](CC(N)=O)C(=O)N[C@@H]([C@@H](C)O)C(=O)N[C@@H](C)C(=O)N[C@@H]([C@@H](C)O)C(=O)N1)[C@@H](C)O)C(=O)N[C@@H](CC(C)C)C(=O)N1CCC[C@H]1C(=O)N1CCC[C@H]1C(=O)N[C@H](C(=O)N[C@@H](CC(N)=O)C(=O)N[C@H](C(=O)NCC(=O)N[C@@H](CO)C(=O)N[C@@H](Cc1cnc[nH]1)C(=O)N[C@H](C(=O)N[C@@H](Cc1ccc(O)cc1)C(N)=O)[C@@H](C)O)C(C)C)[C@@H](C)O [Example 57, N-alpha-[(S)-4-Carboxy-4-(19-carboxynonadecanoylamino)butyryl]-[Glu14,Arg17,His35]-pramlintide] ({C20 diacid-γGlu}-KCNTATCATQRLAEFLRHSSNNFGPILPPTNVGSHTY-NH2; disulfide 2-7)
